US20240122932A1, “Methods of Treating B-Cell Malignancy Using Bcl-2 Inhibitor” (BeiGene Switzerland GmbH, priority 2021, published 2024)

Tested on: MAVER-1 mantle cell lymphoma (MCL) subcutaneous xenograft
Assay: MAVER-1 MCL subcutaneous xenograft model
Type: in vivo, NCG mice
Method: MAVER-1 cells are of mantle cell lymphoma (MCL) origin and were obtained from American Type Culture Collection (ATCC CRL-3008, Manassas, VA, DC, USA). Cells were grown in RPM 1640 medium (Corning, Cat #10-040-CVR), supplemented with 10% (v/v) fetal bovine serum (Gibco, Cat #10099-141C), and 100 μg/mL of penicillin and streptomycin (Gibco, Cat #15140-122). MAVER-1 cells were maintained as suspension cell cultures at 37° C. in a 5% CO2 atmosphere. Five to six-week-old female NCG mice were purchased from Gempharmatech of Information Technology Center. All animals were maintained under specific pathogen free (SPF) “full barrier” condition with free access to food and water. Mice were group-housed under a 12 h light:dark cycle (lights on at 08:00 h), at a temperature of 21-26° C. and 44-61% humidity in IVC cages (Lingyunboji (Beijing) Technology Co., Ltd.). Mice were fed with complete granulated feed with Co60 radiosterilization (Beijing Ke Ao Xie Li Feed Co., Ltd.).
On the day of implantation, MAVER-1 cells were harvested and re-suspended with appropriate volume of ice cold DPBS and same volume of Matrigel (Corning, Cat #356237) to give a final concentration of 1.5×10^7 cells/mL. Re-suspended cells were placed on ice prior to inoculation. The right front flank region of each mouse was cleaned with 75% ethanol prior to cell inoculation. Each animal was injected subcutaneously with 3×10^6 cells in 200 μL of cell suspension in the right front flank via a 26-gauge needle. After implantation, primary tumor volume was measured in two dimensions using a caliper.
Animals were randomly assigned into 7 groups with 10 mice per group according to body weight and tumor volume (100 mm^3-200 mm^3). The groups consisted of vehicle group, 5, 15 mg/kg of venetoclax with QD dosing, 5, 15 mg/kg of Compound 1 with QD dosing, and 2.5, 7.5 mg/kg of Compound 1 with BID dosing. Treatments were administered by oral gavage (p.o.) in a volume of 10 mL/kg body weight. Body weight was assessed immediately before dosing and volume dosed was adjusted accordingly.
Individual body weight was recorded twice weekly, with mice being monitored daily for clinical signs of toxicity for the duration of the study. Mice were euthanized using carbon dioxide when their tumor volume reached 2,000 mm^3, the tumor was ulcerated, or body weight loss exceeded 20%.
Tumor volume was calculated using the formula: V=0.5×(a×b^2) where a and b are the long and short diameters of the tumor, respectively. Tumor growth inhibition (TGI) was calculated using the following formula: % TGI=100×[1−(treatedt−treatedt0)/(vehiclet−vehiclet0)] (treated t=treated tumor volume at time t, treated t0=treated tumor volume at time 0, vehicle t=vehicle tumor volume at time t and vehicle t0=vehicle tumor volume at time 0)

Row | SMILES | Mean Tumor volume (Day 14) (mm^3 ± SEM) (2.5 mg/kg BID × 17 p.o.) [mm^3] | TGI (Day 14) (2.5 mg/kg BID × 17 p.o.) [%] | Mean Tumor volume (Day 14) (mm^3 ± SEM) (5 mg/kg QD × 17 p.o.) [mm^3] | TGI (Day 14) (5 mg/kg QD × 17 p.o.) [%] | Mean Tumor volume (Day 14) (mm^3 ± SEM) (7.5 mg/kg BID × 17 p.o.) [mm^3] | TGI (Day 14) (7.5 mg/kg BID × 17 p.o.) [%] | Mean Tumor volume (Day 14) (mm^3 ± SEM) (15 mg/kg QD × 17 p.o.) [mm^3] | TGI (Day 14) (15 mg/kg QD × 17 p.o.) [%] | tumor growth suppression (in words) (mouse, in vivo) | anti-tumor activity relative to venetoclax (same total daily doses of 5 and 15 mg/kg)
1 | CC(C)c1ccccc1[C@@H]1CCCN1C1CC2(CCN(c3ccc(C(=O)NS(=O)(=O)c4ccc(NCC5CCC(C)(O)CC5)c([N+](=O)[O-])c4)c(Oc4cnc5[nH]ccc5c4)c3)CC2)C1 (stereo partly drawn) [Compound 1, 2-((1H-pyrrolo[2,3-b]pyridin-5-yl)oxy)-N-((4-((((1r,4r)-4-hydroxy-4-methylcyclohexyl)methyl)amino)-3-nitrophenyl)sulfonyl)-4-(2-((S)-2-(2-isopropylphenyl)pyrrolidin-1-yl)-7-azaspiro[3.5]nonan-7-yl)benzamide] | 511.5 ± 49.9 | 77 | 383.5 ± 29.6 | 86 | 136.2 ± 2.6 | 103 | 140.5 ± 5.3 | 103 | potently suppressed tumor growth in a dose-dependent manner | showed more anti-tumor activities relative to venetoclax
2 | CC1(C)CCC(CN2CCN(c3ccc(C(=O)NS(=O)(=O)c4ccc(NCC5CCOCC5)c([N+](=O)[O-])c4)c(Oc4cnc5[nH]ccc5c4)c3)CC2)=C(c2ccc(Cl)cc2)C1 [Venetoclax, reference compound] | – | – | 1082.1 ± 109.4 | 38 | – | – | 315.4 ± 23.1 | 91 | – | –
